In paper PMC11467737, “Osteocalcin binds to a GPRC6A Venus fly trap allosteric site to positively modulate GPRC6A signaling” (FASEB BioAdvances, 2024):
Bridge positions count the residues as written; N and C are the ends. Ends that are not written are not given here.

How the values were obtained:
[1] = target: T1, human GPRC6A isoform 3 (Homo sapiens, UniProt Q5T6X5); experiment: cAMP accumulation in HEK-293 cells transfected with human GPRC6A isoform 3; type: cell-based; conditions: isoform 3; Ocn 1.73-26.0 nM; 1 mM calcium; 40 min; Figure 2C
T1 construct: expressed in transfected cells; host or cells: HEK-293
T1 sequence (Q5T6X5 19-855 isoform Q5T6X5-3 limits assumed): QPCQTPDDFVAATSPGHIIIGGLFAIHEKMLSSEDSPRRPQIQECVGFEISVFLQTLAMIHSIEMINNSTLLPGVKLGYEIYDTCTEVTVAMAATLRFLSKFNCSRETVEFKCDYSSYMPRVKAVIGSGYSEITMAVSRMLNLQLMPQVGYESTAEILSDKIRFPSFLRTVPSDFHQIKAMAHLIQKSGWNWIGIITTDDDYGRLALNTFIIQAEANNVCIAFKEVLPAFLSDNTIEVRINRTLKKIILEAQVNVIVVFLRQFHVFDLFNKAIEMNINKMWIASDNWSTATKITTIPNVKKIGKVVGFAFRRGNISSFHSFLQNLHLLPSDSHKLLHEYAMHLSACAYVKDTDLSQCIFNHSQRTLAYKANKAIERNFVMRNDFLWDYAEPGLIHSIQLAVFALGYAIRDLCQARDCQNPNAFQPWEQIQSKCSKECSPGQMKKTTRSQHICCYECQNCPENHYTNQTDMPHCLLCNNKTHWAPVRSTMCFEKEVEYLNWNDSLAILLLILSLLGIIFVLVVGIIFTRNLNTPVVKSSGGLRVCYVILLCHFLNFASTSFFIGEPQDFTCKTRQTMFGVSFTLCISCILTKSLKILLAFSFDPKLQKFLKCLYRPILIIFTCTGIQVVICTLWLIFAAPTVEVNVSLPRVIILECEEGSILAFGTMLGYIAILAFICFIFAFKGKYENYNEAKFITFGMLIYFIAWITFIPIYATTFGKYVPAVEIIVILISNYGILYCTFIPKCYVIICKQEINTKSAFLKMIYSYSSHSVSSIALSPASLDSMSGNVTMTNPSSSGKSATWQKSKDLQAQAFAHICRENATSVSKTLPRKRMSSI
Protocol: (§1) HEK‐293 transfected with human GPRC6A isoform cDNA plasmids cells (10^5 cells/well)[30] were cultured in 24‐well plates in DMEM supplemented with 10% fetal bovine serum and 1% penicillin/streptomycin (100 U/mL of penicillin and 100 μg/mL of streptomycin) for 48 h followed by 4 h incubation in DMEM/F12 containing 0.1% BSA and 0.5 mM IBMX to achieve quiescence and preventing cAMP degradation. Quiescent cells were treated with vehicle control, various ligands at concentration as indicated for 40 min at 37°C. Then, the reaction was stopped, and the cells lysed with 0.5 mL 0.1 N HCl. cAMP levels were measured by using Cyclic AMP EIA kit (Cayman Chemical; Ann Arbor, MA, USA) following the manufacture's protocol.

[2] = target: T2, human GPRC6A isoform 1 (Homo sapiens, UniProt Q5T6X5); experiment: ERK activation (phospho-ERK/total ERK ELISA) in HEK-293 cells transfected with human GPRC6A isoform 1 (wild-type); type: cell-based; conditions: for ERK phosphorylation by synthesized human Ocn fragments: fragments at 20 nM, HEK-293 with pcDNA3-hGPRC6A, Figure 3B / S5B
T2 construct: expressed in transfected cells; host or cells: HEK-293, pcDNA3-hGPRC6A
T2 sequence (Q5T6X5 19-926): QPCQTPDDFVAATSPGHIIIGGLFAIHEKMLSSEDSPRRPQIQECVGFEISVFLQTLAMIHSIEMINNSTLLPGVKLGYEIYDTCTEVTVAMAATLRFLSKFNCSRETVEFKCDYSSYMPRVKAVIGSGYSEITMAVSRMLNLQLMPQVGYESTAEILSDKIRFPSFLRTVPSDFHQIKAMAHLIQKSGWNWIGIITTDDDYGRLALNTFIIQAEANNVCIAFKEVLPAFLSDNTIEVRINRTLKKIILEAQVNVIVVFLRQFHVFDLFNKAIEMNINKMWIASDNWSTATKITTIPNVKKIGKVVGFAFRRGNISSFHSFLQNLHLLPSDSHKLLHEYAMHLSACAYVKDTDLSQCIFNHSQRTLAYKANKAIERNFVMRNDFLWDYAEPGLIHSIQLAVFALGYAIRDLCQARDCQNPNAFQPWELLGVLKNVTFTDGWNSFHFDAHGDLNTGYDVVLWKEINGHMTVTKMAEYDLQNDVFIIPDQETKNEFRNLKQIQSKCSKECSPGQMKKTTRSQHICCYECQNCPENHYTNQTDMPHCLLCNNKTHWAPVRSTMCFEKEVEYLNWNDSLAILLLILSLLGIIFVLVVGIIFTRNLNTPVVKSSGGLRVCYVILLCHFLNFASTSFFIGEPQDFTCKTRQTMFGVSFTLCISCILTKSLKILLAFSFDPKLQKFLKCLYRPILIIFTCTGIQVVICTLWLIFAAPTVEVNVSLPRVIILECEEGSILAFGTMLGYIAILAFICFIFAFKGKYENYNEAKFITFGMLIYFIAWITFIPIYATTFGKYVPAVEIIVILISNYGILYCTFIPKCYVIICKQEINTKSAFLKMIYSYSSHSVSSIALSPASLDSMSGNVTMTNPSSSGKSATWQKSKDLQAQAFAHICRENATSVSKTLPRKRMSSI
Protocol: All culture reagents were from Invitrogen (Waltham, MA, USA). Human embryonic kidney HEK‐293 cells were obtained from American Type Culture Collection and cultured in DMEM medium supplemented with 10% fetal bovine serum and 1% Penicillin/Streptomycin (P/S). Briefly, HEK‐293 cells transfected with/without human GPRC6A isoforms cDNA plasmids were starved by overnight incubation in serum‐free DMEM/F12 containing 0.1% bovine serum albumin (BSA) and stimulated with various ligands at different doses. […]

[3] = tested on: GPRC6A isoforms 1, 2 and 3; experiment: GPRC6A signaling in GPRC6A isoforms (read-out not given); type: cell-based, human
Protocol: All culture reagents were from Invitrogen (Waltham, MA, USA). Human embryonic kidney HEK‐293 cells were obtained from American Type Culture Collection and cultured in DMEM medium supplemented with 10% fetal bovine serum and 1% Penicillin/Streptomycin (P/S). Briefly, HEK‐293 cells transfected with/without human GPRC6A isoforms cDNA plasmids were starved by overnight incubation in serum‐free DMEM/F12 containing 0.1% bovine serum albumin (BSA) and stimulated with various ligands at different doses. ERK activation was assessed 20 min after treatment by using ERK1/2 (phospho‐T203/Y204) ELISA Kit (Invitrogen; Waltham, MA, USA) corrected for the amount of total ERK using ERK1/2 (Total) ELISA Kit (Invitrogen; Waltham, MA, USA) to measure ERK levels.
as §1, with “Quiescent cells were treated with vehicle control, various ligands at concentration as indicated for 40 min at 37°C.” left out

Substance | Ocn-induced cAMP accumulation, dose response [1] | ERK phosphorylation, dose response of full-length Ocn ([2]; WT hGPRC6A, Figure 6B) | Ocn-induced ERK activation, dose response ([2]; isoform 1, Ocn 1.73, 8.65, 17.3, 26.0 nM, 1 mM calcium, 15 min, Figure 2B) | ERK phosphorylation by synthesized human Ocn fragments ([2]; 15 min) | Activation of GPRC6A signaling in GPRC6A isoforms ([3]; all isoforms, including isoforms 2 and 3 with deletions in the VFT) | Response of GPRC6A isoforms 2 and 3 ([3]; isoforms 2 and 3)
osteocalcin (YLYQWLGAPVPYPDPLEPRREVCELNPDCDELADHIGFQEAYRRFYGPV; not fully specified; ends and bridges not checked; UniProt P02818 52-100, looked up) [Ocn 1–49, full human Ocn (49 aa) synthesized by BioMatik; methods also describe decarboxylated Ocn purified from bovine tibial bone, reference compound] | maintained the cAMP response | dose‐dependently stimulated | activated GPRC6A isoform 1 in a dose dependent manner | – | – | –
RFYGPV [Ocn 44–49, synthesized human Ocn C‐terminal hexapeptide] | – | – | – | high activity | activated GPRC6A signaling in all GPRC6A isoforms | –
REVCELNPDC (disulfide 4-10 (inferred)) [Ocn 20–29, synthesized human Ocn decapeptide fragment located in the middle of the protein] | – | – | – | high activity | – | diminished responses
